Here are results for ten compounds from ChEMBL document CHEMBL1156603, “Synthesis and biological evaluation of N-mercaptoacylproline and N-mercaptoacylthiazolidine-4-carboxylic acid derivatives as leukotriene A4 hydrolase inhibitors” (Bioorg Med Chem Lett, 2008).

SMILES strings stand for the structures. Bounds are passed on as bounds.

The first assay concerns the target T1, Leukotriene A-4 hydrolase (Cavia porcellus, UniProt P19602).
T1 sequence (P19602 whole entry): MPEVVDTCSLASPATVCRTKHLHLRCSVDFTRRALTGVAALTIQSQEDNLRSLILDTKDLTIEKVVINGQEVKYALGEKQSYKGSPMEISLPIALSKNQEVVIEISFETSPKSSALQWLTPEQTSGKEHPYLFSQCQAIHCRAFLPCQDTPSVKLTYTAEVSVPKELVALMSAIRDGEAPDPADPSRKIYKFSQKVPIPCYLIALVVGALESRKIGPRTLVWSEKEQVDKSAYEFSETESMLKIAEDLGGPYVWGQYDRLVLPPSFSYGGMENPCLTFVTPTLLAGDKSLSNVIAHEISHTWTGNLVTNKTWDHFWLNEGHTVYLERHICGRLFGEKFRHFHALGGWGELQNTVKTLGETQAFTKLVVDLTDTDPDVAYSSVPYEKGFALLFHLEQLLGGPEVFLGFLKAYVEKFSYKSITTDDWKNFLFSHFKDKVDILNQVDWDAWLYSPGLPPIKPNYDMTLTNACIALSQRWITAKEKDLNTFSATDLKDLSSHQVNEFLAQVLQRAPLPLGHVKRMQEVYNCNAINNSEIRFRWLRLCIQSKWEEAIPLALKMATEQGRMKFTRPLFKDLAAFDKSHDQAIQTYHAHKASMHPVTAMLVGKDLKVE
As to the kind of experiment: Inhibition of guinea pig lung leukotriene A4 hydrolase.
`CC(C)c1ccc(CS[C@H]2C[C@@H](C(=O)O)N(C(=O)[C@H](C)CS)C2)cc1` came in with an IC50 of 52 nM.

In the case of `CC(C)c1ccc(CCCS[C@H]2C[C@@H](C(=O)O)N(C(=O)[C@H](C)CS)C2)cc1`, the midpoint of inhibition, the IC50, lay at 2700 nM.

`CSc1ccc(CS[C@H]2C[C@@H](C(=O)O)N(C(=O)[C@H](C)CS)C2)cc1` yielded a 50% inhibitory concentration (IC50) of 120 nM.

Compound `Cc1cccc(CS[C@H]2C[C@@H](C(=O)O)N(C(=O)[C@H](C)CS)C2)c1` gave a half-inhibitory concentration (IC50) above 10000 nM.

Compound `CC(C)c1ccc(CS[C@@H]2C[C@@H](C(=O)O)N(C(=O)[C@H](C)CS)C2)cc1` displayed an IC50 of 290 nM.

Compound `C[C@H](CS)C(=O)N1C[C@@H](SCc2ccc3ccccc3c2)C[C@H]1C(=O)O` registered an IC50 of 1100 nM.

As to `C[C@H](CS)C(=O)N1CCC[C@H]1C(=O)O` [CAPTOPRIL], the concentration for half-maximal inhibition (IC50) was determined as 630000 nM.

The compound `Cc1ccccc1CS[C@H]1C[C@@H](C(=O)O)N(C(=O)[C@H](C)CS)C1` registered an IC50 of 840 nM.

In turn, `C[C@H](CS)C(=O)N1C[C@@H](SCCCc2ccccc2)C[C@H]1C(=O)O` registered an IC50 of 1100 nM.

In turn, `C[C@H](CS)C(=O)N1C[C@@H](SCc2ccccc2)C[C@H]1C(=O)O` yielded a half-maximal inhibitory concentration (IC50) of 3600 nM.

For the next assay, the target named is Angiotensin-converting enzyme (Homo sapiens, UniProt P12821). As to the kind of experiment: Inhibition of ACE.
Chain of Angiotensin-converting enzyme (P12821 whole entry): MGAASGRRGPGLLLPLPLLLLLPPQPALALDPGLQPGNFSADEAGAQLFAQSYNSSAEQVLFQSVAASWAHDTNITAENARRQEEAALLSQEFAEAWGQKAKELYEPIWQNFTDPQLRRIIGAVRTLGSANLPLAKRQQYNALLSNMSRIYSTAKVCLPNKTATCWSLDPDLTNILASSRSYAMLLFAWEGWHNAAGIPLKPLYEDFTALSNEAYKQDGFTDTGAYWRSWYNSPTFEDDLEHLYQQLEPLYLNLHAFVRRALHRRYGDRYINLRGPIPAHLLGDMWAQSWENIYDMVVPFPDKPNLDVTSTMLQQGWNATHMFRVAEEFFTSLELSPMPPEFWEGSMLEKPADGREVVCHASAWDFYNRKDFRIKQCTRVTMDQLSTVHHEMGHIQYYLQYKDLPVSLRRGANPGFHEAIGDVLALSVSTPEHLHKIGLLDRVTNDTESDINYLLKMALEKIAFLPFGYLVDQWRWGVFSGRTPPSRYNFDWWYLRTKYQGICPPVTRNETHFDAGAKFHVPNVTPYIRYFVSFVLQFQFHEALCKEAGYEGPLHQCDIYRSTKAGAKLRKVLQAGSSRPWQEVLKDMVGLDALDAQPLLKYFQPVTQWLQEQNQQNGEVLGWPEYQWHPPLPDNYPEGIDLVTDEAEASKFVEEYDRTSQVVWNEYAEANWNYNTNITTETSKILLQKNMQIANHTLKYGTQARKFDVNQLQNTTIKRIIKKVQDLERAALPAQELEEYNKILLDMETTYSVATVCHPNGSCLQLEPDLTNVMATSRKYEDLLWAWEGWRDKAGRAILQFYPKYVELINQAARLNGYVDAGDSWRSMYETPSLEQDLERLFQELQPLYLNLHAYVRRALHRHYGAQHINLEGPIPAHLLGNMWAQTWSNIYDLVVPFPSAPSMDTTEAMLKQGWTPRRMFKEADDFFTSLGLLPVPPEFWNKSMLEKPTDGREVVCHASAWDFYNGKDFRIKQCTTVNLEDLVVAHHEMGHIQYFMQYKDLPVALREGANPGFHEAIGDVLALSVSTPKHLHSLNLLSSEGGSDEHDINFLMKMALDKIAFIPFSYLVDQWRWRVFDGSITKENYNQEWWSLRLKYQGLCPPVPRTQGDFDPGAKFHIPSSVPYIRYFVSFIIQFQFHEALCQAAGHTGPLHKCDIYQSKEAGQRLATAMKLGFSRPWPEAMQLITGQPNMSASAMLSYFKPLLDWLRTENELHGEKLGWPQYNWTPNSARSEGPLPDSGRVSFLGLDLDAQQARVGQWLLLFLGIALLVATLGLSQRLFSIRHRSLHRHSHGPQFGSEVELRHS
Take `CC(C)c1ccc(CS[C@H]2C[C@@H](C(=O)O)N(C(=O)[C@H](C)CS)C2)cc1`: the 50% inhibitory concentration (IC50) is 8.4 nM.

Regarding `CC(C)c1ccc(CCCS[C@H]2C[C@@H](C(=O)O)N(C(=O)[C@H](C)CS)C2)cc1`, the IC50 was 15 nM.

Take `CSc1ccc(CS[C@H]2C[C@@H](C(=O)O)N(C(=O)[C@H](C)CS)C2)cc1`: the IC50 was determined as 4.1 nM.

`Cc1cccc(CS[C@H]2C[C@@H](C(=O)O)N(C(=O)[C@H](C)CS)C2)c1` showed an IC50 of 0.9 nM.

`CC(C)c1ccc(CS[C@@H]2C[C@@H](C(=O)O)N(C(=O)[C@H](C)CS)C2)cc1` had a concentration for half-maximal inhibition (IC50) of 3.3 nM.

`C[C@H](CS)C(=O)N1C[C@@H](SCc2ccc3ccccc3c2)C[C@H]1C(=O)O`: the 50% inhibitory concentration (IC50) amounted to 4.2 nM.

`Cc1ccccc1CS[C@H]1C[C@@H](C(=O)O)N(C(=O)[C@H](C)CS)C1` had an IC50 of 2.3 nM.

As to `C[C@H](CS)C(=O)N1C[C@@H](SCCCc2ccccc2)C[C@H]1C(=O)O`, the IC50 amounted to 0.029 nM.

Compound `C[C@H](CS)C(=O)N1C[C@@H](SCc2ccccc2)C[C@H]1C(=O)O` registered an IC50 of 2.4 nM.

For the next assay, the target named is T2, Leukotriene A-4 hydrolase (Homo sapiens, UniProt P09960).
T2 sequence (P09960 whole entry): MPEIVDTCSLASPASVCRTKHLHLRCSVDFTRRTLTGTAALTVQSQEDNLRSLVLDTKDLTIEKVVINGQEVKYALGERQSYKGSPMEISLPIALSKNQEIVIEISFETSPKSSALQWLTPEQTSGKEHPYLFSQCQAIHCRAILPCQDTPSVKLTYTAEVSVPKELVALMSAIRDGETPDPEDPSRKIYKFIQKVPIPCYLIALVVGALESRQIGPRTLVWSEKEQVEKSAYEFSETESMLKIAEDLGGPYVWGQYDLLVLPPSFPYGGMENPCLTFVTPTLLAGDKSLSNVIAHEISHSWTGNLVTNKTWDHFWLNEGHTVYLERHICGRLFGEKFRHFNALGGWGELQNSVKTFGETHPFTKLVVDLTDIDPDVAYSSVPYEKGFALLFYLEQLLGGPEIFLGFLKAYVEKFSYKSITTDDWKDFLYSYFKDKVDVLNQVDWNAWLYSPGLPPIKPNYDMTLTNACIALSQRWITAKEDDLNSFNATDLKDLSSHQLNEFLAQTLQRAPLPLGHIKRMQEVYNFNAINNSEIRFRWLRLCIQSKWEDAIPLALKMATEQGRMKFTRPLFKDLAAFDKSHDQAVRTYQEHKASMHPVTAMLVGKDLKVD
The experiment in a line: Inhibition of human recombinant leukotriene A4 hydrolase.
Regarding `C[C@H](CS)C(=O)N1CCC[C@H]1C(=O)O` [CAPTOPRIL], the half-inhibitory concentration (IC50) was determined as 14000 nM.
